Measured values from the supplement of paper PMC10331698.
± gives the standard deviation of the averaged measurements.

Legend:
Assay in all cases: level (log10 ratio to DMSO vehicle control); higher = higher biomarker level / cell amount than vehicle control
[1] = compound: O=C(O)C(F)(F)C(F)(F)C(F)(F)OC(F)(F)F [Perfluoro(4-methoxybutanoic) acid] (in DMSO)
Protocol: (§1)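 BioMAP Diversity Plus panel of 12 human primary cell co-culture systems (3C, 4H, LPS, SAg, BT, BF4T, BE3C, CASM3C, HDF3CGF, KF3CT, MyoF, Mphg). Compounds were added 1 h before stimulation and left for 24 h (MyoF 48 h; BT 72 h for soluble read-outs or 6 d for IgG). Biomarkers were read by ELISA, cytotoxicity by SRB, PBMC viability and proliferation by Alamar Blue. Each well value was divided by the mean of 8 DMSO control wells on the same plate and log10 transformed; duplicate blinded samples were tested at 4 concentrations.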

[2] = compound: OCC(F)(F)C(F)(F)C(F)(F)C(F)(F)C(F)(F)C(F)(F)CO [1H,1H,8H,8H-Perfluorooctane-1,8-diol] (in DMSO)
Protocol: as §1

[3] = compound: C[C@@H]1C[C@H]2[C@@H]3CCC4=CC(=O)C=C[C@]4(C)[C@@]3(F)[C@@H](O)C[C@]2(C)[C@@]1(O)C(=O)COP(=O)(O)O [Dexamethasone sodium phosphate] (in DMSO)
Protocol: as §1

Perfluorononanoic acid = compound: O=C(O)C(F)(F)C(F)(F)C(F)(F)C(F)(F)C(F)(F)C(F)(F)C(F)(F)C(F)(F)F [Perfluorononanoic acid] (in DMSO)
Protocol: as §1

[4] = compound: CO[Si](C)(CCC(F)(F)C(F)(F)C(F)(F)C(F)(F)C(F)(F)C(F)(F)F)OC [Dimethoxymethyl((perfluorohexyl)ethyl)silane] (in DMSO)
Protocol: as §1

[5] = compound: O=C(O)C(F)(OC(F)(F)C(F)(F)C(F)(F)F)C(F)(F)F [Ammonium perfluoro-2-methyl-3-oxahexanoate] (in Water)
Protocol: as §1

Row | Test System | level (log10) ([1]; 6700 nM) | level (log10) ([1]; 20000 nM) | level (log10) ([1]; 60000 nM) | level (log10) ([2]; 6700 nM) | level (log10) ([2]; 20000 nM) | level (log10) ([2]; 60000 nM) | level (log10) ([3]; 1500 nM) | level (log10) ([3]; 4400 nM) | level (log10) ([3]; 13000 nM) | level (log10) ([3]; 40000 nM) | level (log10) (Perfluorononanoic acid; 6700 nM) | level (log10) (Perfluorononanoic acid; 20000 nM) | level (log10) ([4]; 6700 nM) | level (log10) ([4]; 20000 nM) | level (log10) ([5]; 6700 nM) | level (log10) ([5]; 20000 nM) | level (log10) ([5]; 60000 nM)
1 | LPS:CD40 | -0.0385 ± 0.06 | 0 ± 0.055 | -0.0465 ± 0.094 | -0.031 ± 0.0057 | -0.0375 ± 0.032 | -0.0555 ± 0.049 | 0.0175 ± 0.054 | -0.035 ± 0.03 | -0.012 ± 0.037 | -0.0635 ± 0.019 | -0.0305 ± 0.019 | -0.039 ± 0.011 | -0.0085 ± 0.029 | -0.009 ± 0.025 | -0.014 ± 0.018 | -0.0145 ± 0.016 | -0.045 ± 0.03
2 | 3C:CXCL8/IL-8 | 0.008 ± 0.014 | 0.001 ± 0.0099 | 0.022 ± 0.025 | -0.0045 ± 0.0021 | -0.0055 ± 0.0064 | 0.0245 ± 0.023 | 0.014 ± 0.027 | -0.0015 ± 0.0035 | -0.0035 ± 0.032 | -0.007 ± 0.062 | 0.0175 ± 0.0021 | 0.0475 ± 0.013 | -0.007 ± 0.0014 | 0.011 ± 0.0057 | 0.038 ± 0.037 | 0.0745 ± 0.029 | 0.131 ± 0.014
3 | BF4T:PAI-I | 0.0015 ± 0.011 | -0.008 ± 0.014 | 0.014 ± 0.035 | 0.018 ± 0.013 | 0 ± 0.0099 | -0.0065 ± 0.011 | -0.0005 ± 0.022 | 0.01 ± 0.013 | 0.001 ± 0.018 | 0.0085 ± 0.0021 | -0.0145 ± 0.03 | -0.007 ± 0.028 | -0.008 ± 0.013 | -0.0145 ± 0.0021 | -0.004 ± 0.0028 | 0.001 ± 0.0042 | 0.005 ± 0.0028
4 | SAg:CXCL9/MIG | -0.0025 ± 0.00071 | -0.0005 ± 0.0092 | 0.011 ± 0.0028 | -0.0055 ± 0.0021 | 0.0035 ± 0.0064 | 0.02 ± 0.0085 | 0.0095 ± 0.00071 | -0.0065 ± 0.0035 | -0.0125 ± 0.0035 | -0.005 ± 0.0099 | 0.005 ± 0.017 | -0.004 ± 0.013 | 0.0075 ± 0.0021 | -0.0035 ± 0.0035 | -0.006 ± 0.0085 | 0.001 ± 0.014 | 0.001 ± 0.028
5 | BF4T:MMP-9 | 0.0095 ± 0.032 | 0.006 ± 0.034 | 0.027 ± 0.028 | -0.019 ± 0.03 | -0.008 ± 0.011 | 0.0075 ± 0.0092 | 0.051 ± 0.041 | 0.026 ± 0.037 | 0.0035 ± 0.046 | 0.0225 ± 0.063 | -0.034 ± 0.038 | -0.032 ± 0.0042 | -0.0065 ± 0.037 | -0.001 ± 0.017 | 0.0275 ± 0.005 | 0.047 ± 0.017 | 0.075 ± 0.013
6 | SAg:PBMC Cytotoxicity | 0.046 ± 0.038 | -0.007 ± 0.024 | 0.019 ± 0.0028 | -0.0045 ± 0.03 | 0.036 ± 0.062 | 0.0305 ± 0.033 | -0.013 ± 0.054 | 0.003 ± 0.037 | -0.05 ± 0.024 | -0.0395 ± 0.019 | 0.006 ± 0.018 | 0.015 ± 0.013 | -0.0045 ± 0.012 | 0.019 ± 0.0057 | -0.011 ± 0.013 | -0.024 ± 0.013 | -0.0035 ± 0.0064
7 | 3C:HLA-DR | 0.0105 ± 0.013 | 0.0055 ± 0.023 | 0.0015 ± 0.016 | -0.0115 ± 0.015 | -0.007 ± 0.0085 | -0.0175 ± 0.026 | -0.0025 ± 0.012 | -0.0065 ± 0.022 | 0.0035 ± 0.0035 | 0.0135 ± 0.0035 | -0.024 ± 0.033 | 0.017 ± 0.021 | 0.013 ± 0.014 | 0.029 ± 0.013 | 0.0075 ± 0.011 | 0.0175 ± 0.028 | 0.016 ± 0.0014
8 | 3C:CXCL9/MIG | -0.012 ± 0.013 | -0.012 ± 0.017 | -0.001 ± 0.013 | 0.0015 ± 0.0035 | -0.0025 ± 0.005 | 0.0105 ± 0.013 | 0.0025 ± 0.0021 | 0.001 ± 0.0085 | -0.004 ± 0.0071 | 0.003 ± 0.0085 | -0.0085 ± 0.0064 | 0.0045 ± 0.0064 | -0.011 ± 0.0014 | 0.003 ± 0.0071 | -0.0085 ± 0.011 | -0.003 ± 0.0099 | -0.004
9 | LPS:CD142/Tissue Factor | -0.0085 ± 0.066 | -0.012 ± 0.054 | 0.016 ± 0.051 | 0.011 ± 0.1 | 0.0075 ± 0.033 | -0.0095 ± 0.054 | 0.0495 ± 0.026 | 0.03 ± 0.023 | 0.014 ± 0.03 | 0.038 ± 0.028 | 0.01 ± 0.016 | -0.001 ± 0.02 | 0.011 ± 0.048 | 0.017 ± 0.058 | 0.0885 ± 0.064 | 0.0845 ± 0.028 | 0.075 ± 0.045
10 | BE3C:CD54/ICAM-1 | -0.0015 ± 0.013 | -0.007 ± 0.0085 | -0.007 ± 0.017 | 0.013 ± 0.0057 | 0.0185 ± 0.018 | -0.003 ± 0.03 | -0.0035 ± 0.033 | -0.0265 ± 0.005 | -0.0205 ± 0.0021 | -0.0105 ± 0.021 | -0.004 ± 0.034 | 0.0095 ± 0.0035 | 0 ± 0.0085 | 0 ± 0.0042 | -0.007 ± 0.0057 | -0.0025 ± 0.0035 | -0.016
11 | SAg:CD62E/E-Selectin | -0.01 ± 0.0028 | -0.0145 ± 0.037 | -0.0125 ± 0.037 | 0.0005 ± 0.00071 | -0.026 ± 0.0028 | -0.016 ± 0.0042 | -0.0615 ± 0.0021 | -0.124 ± 0.015 | -0.168 ± 0.059 | -0.168 ± 0.03 | -0.01 ± 0.03 | 0.0315 ± 0.039 | -0.0185 ± 0.019 | 0.0235 ± 0.0035 | 0.036 ± 0.0014 | 0.022 ± 0.013 | 0.057 ± 0.0028
12 | SAg:Proliferation | -0.0095 ± 0.0021 | 0 ± 0.018 | -0.009 ± 0.0014 | -0.0035 ± 0.033 | 0 ± 0.025 | -0.0055 ± 0.039 | -0.001 ± 0.034 | 0.0035 ± 0.0078 | -0.0855 ± 0.005 | -0.023 ± 0.0099 | 0.0075 ± 0.056 | 0.0035 ± 0.0092 | 0.051 ± 0.048 | -0.004 ± 0.13 | -0.0005 ± 0.028 | -0.043 ± 0.028 | -0.0265 ± 0.049
13 | BF4T:CXCL8/IL-8 | 0.04 ± 0.069 | 0.014 ± 0.086 | 0.0245 ± 0.028 | -0.003 ± 0.0042 | -0.0095 ± 0.0064 | 0.001 ± 0.0071 | -0.0315 ± 0.04 | -0.0495 ± 0.046 | -0.0715 ± 0.033 | -0.0435 ± 0.00071 | 0.048 ± 0.0028 | 0.0165 ± 0.00071 | -0.005 ± 0.027 | 0.012 ± 0.018 | -0.0135 ± 0.036 | 0.0295 ± 0.028 | 0.0255 ± 0.03
14 | BT:Secreted IgG | -0.0045 ± 0.03 | 0.026 ± 0.047 | -0.0125 ± 0.0064 | -0.0265 ± 0.016 | -0.0095 ± 0.016 | -0.098 ± 0.0099 | 0.024 ± 0.0085 | 0.002 | 0.034 ± 0.011 | 0.0025 ± 0.036 | 0.0275 ± 0.021 | 0.0335 ± 0.026 | 0.0505 ± 0.0078 | 0.021 ± 0.018 | -0.12 ± 0.07 | -0.113 ± 0.059 | -0.156
15 | 3C:SRB | -0.0175 ± 0.018 | -0.0255 ± 0.018 | -0.0195 ± 0.0064 | 0.012 ± 0.017 | 0.0035 ± 0.025 | -0.0045 ± 0.04 | -0.0005 ± 0.00071 | -0.005 ± 0.0085 | -0.0025 ± 0.025 | 0.0035 ± 0.025 | -0.002 ± 0.0042 | -0.003 | -0.006 ± 0.0028 | 0.0085 ± 0.0035 | -0.019 ± 0.011 | -0.021 ± 0.0042 | -0.045
16 | BF4T:tPA | -0.003 | 0.0005 ± 0.0064 | 0.0105 ± 0.022 | -0.011 ± 0.014 | -0.024 ± 0.0057 | -0.025 ± 0.0085 | 0.0375 ± 0.05 | 0.01 ± 0.034 | 0.0145 ± 0.016 | 0.027 ± 0.021 | -0.025 ± 0.027 | -0.0995 ± 0.026 | 0.0005 ± 0.023 | -0.015 ± 0.0028 | 0.0405 ± 0.0078 | 0.0575 ± 0.033 | 0.0185 ± 0.019
17 | BT:sIL-6 | 0.042 ± 0.089 | 0.0225 ± 0.071 | -0.061 ± 0.038 | -0.029 ± 0.045 | -0.078 ± 0.016 | -0.216 ± 0.054 | -0.2605 ± 0.0021 | -0.281 ± 0.07 | -0.3065 ± 0.0021 | -0.33 ± 0.061 | 0.0215 ± 0.016 | 0.0145 ± 0.0092 | -0.038 ± 0.076 | 0.0465 ± 0.14 | -0.0915 ± 0.0035 | -0.0905 ± 0.021 | -0.151 ± 0.014
